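The compound was tested at five concentrations on cells cultured in 96-well plates, with a 48-hour exposure period. At the GI50, growth is halved.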 Calls of active or inactive are those of the source. No stated cut-off is given here; in the data, active = GI50 up to about 1.1 µM and inactive = higher.
Tests used:
Experiment in all cases: inhibition of tumour cell growth, NCI panel, 48 h
[1] = system: UACC-257
[2] = system: SNB-19
[3] = system: OVCAR-5
[4] = system: SF-268
[5] = system: M14
[6] = system: OVCAR-4
[7] = system: SF-295
[8] = system: U-251
[9] = system: SNB-75
[10] = system: CCRF-CEM
[11] = system: LOX IMVI
[12] = system: NCI-H226
[13] = system: HOP-92
[14] = system: PC-3
[15] = system: SR
[16] = system: HCT-116
[17] = system: SK-MEL-2
[18] = system: UACC-62
[19] = system: SF-539
[20] = system: SW-620

Q: Which GI50 [1] does the source give for CCCCCCCCC[C@@H]1C[C@@H]2CCC3C(C(=O)OC)=C(C)N=C(N1)N32 (some centres undefined) here?
A: Its GI50 is 10.5 µM (inactive).

Q: And the GI50 [2]?
A: Its GI50 is 4.18 µM (inactive).

Q: What about the GI50 [3] of the same molecule?
A: Its GI50 is 18 µM (inactive).

Q: What about the GI50 [4] of the same molecule?
A: The GI50 was 5.05 µM (inactive).

Q: And the GI50 [5]?
A: The GI50 was 5.46 µM (inactive).

Q: What about the GI50 [6] of the same molecule?
A: The GI50 was 6.93 µM (inactive).

Q: What about the GI50 [7] of the same molecule?
A: The GI50 was 9.4 µM (inactive).

Q: And the GI50 [8]?
A: The GI50 was 3.27 µM (inactive).

Q: What about the GI50 [9] of the same molecule?
A: Its GI50 is 5.71 µM (inactive).

Q: And the GI50 [10]?
A: Its GI50 is > 100 µM (inactive).

Q: What about the GI50 [11] of the same molecule?
A: Its GI50 is 9.86 µM (inactive).

Q: And the GI50 [12]?
A: Its GI50 is 6.98 µM (inactive).

Q: What about the GI50 [13] of the same molecule?
A: The GI50 was 10 µM (inactive).

Q: And the GI50 [14]?
A: Its GI50 is 3.64 µM (inactive).

Q: And the GI50 [15]?
A: The GI50 was 3.91 µM (inactive).

Q: And the GI50 [16]?
A: Its GI50 is 4.25 µM (inactive).

Q: What about the GI50 [17] of the same molecule?
A: The GI50 was 11.1 µM (inactive).

Q: And the GI50 [18]?
A: The GI50 was 4.52 µM (inactive).

Q: And the GI50 [19]?
A: The GI50 was 3.29 µM (inactive).

Q: What about the GI50 [20] of the same molecule?
A: Its GI50 is 15.6 µM (inactive).

Q: N#Cc1c2c(c(Nc3ccc(F)cc3)n3c1nc1ccccc13)CCC2 was tested. Which GI50 [1] did it give?
A: The GI50 was 7.96 µM (inactive).

Q: What about the GI50 [2] of the same molecule?
A: The GI50 was 8.61 µM (inactive).

Q: And the GI50 [3]?
A: The GI50 was 5.02 µM (inactive).

Q: And the GI50 [4]?
A: The GI50 was 3.55 µM (inactive).

Q: What about the GI50 [5] of the same molecule?
A: Its GI50 is 5.89 µM (inactive).

Q: What about the GI50 [6] of the same molecule?
A: The GI50 was 10 µM (inactive).

Q: What about the GI50 [7] of the same molecule?
A: Its GI50 is 5.05 µM (inactive).

Q: And the GI50 [8]?
A: The GI50 was 2.84 µM (inactive).

Q: What about the GI50 [9] of the same molecule?
A: Its GI50 is 6.18 µM (inactive).

Q: And the GI50 [10]?
A: Its GI50 is 0.791 µM (active).

Q: What about the GI50 [11] of the same molecule?
A: Its GI50 is 2.13 µM (inactive).

Q: What about the GI50 [12] of the same molecule?
A: The GI50 was 6.81 µM (inactive).

Q: And the GI50 [13]?
A: Its GI50 is 6.37 µM (inactive).

Q: What about the GI50 [14] of the same molecule?
A: The GI50 was 5.14 µM (inactive).

Q: What about the GI50 [15] of the same molecule?
A: Its GI50 is 10.2 µM (inactive).

Q: And the GI50 [16]?
A: The GI50 was 1.76 µM (inactive).

Q: And the GI50 [17]?
A: The GI50 was 14.3 µM (inactive).

Q: What about the GI50 [18] of the same molecule?
A: The GI50 was 10.9 µM (inactive).

Q: And the GI50 [19]?
A: The GI50 was 3.46 µM (inactive).

Q: What about the GI50 [20] of the same molecule?
A: Its GI50 is 2.43 µM (inactive).

Q: How did the GI50 [1] turn out when CCc1nc(N)nc(N)c1-c1ccc([N+](=O)[O-])c(Cl)c1 was run?
A: Its GI50 is 31 µM (inactive).

Q: What about the GI50 [2] of the same molecule?
A: The GI50 was 17.9 µM (inactive).

Q: And the GI50 [3]?
A: The GI50 was 25.2 µM (inactive).

Q: What about the GI50 [4] of the same molecule?
A: The GI50 was 4.29 µM (inactive).

Q: And the GI50 [5]?
A: Its GI50 is 2.65 µM (inactive).

Q: What about the GI50 [6] of the same molecule?
A: Its GI50 is 46.5 µM (inactive).

Q: What about the GI50 [7] of the same molecule?
A: The GI50 was 2.59 µM (inactive).

Q: And the GI50 [8]?
A: Its GI50 is 3.1 µM (inactive).

Q: What about the GI50 [9] of the same molecule?
A: The GI50 was 28.2 µM (inactive).

Q: What about the GI50 [10] of the same molecule?
A: The GI50 was 2.36 µM (inactive).

Q: What about the GI50 [11] of the same molecule?
A: The GI50 was 1.44 µM (inactive).

Q: What about the GI50 [12] of the same molecule?
A: Its GI50 is 30.4 µM (inactive).

Q: And the GI50 [13]?
A: The GI50 was 18.2 µM (inactive).

Q: And the GI50 [14]?
A: The GI50 was 1.87 µM (inactive).

Q: And the GI50 [15]?
A: The GI50 was 1.74 µM (inactive).

Q: What about the GI50 [16] of the same molecule?
A: Its GI50 is 0.457 µM (active).

Q: And the GI50 [17]?
A: The GI50 was 34.7 µM (inactive).

Q: And the GI50 [18]?
A: The GI50 was 1.73 µM (inactive).

Q: What about the GI50 [19] of the same molecule?
A: The GI50 was 3.76 µM (inactive).

Q: What about the GI50 [20] of the same molecule?
A: Its GI50 is 1.49 µM (inactive).

Q: For S=C(NN=C1NCCCCN1)Nc1ccc(Cl)cc1, which GI50 [1] is on record?
A: Its GI50 is 14.8 µM (inactive).

Q: And the GI50 [2]?
A: The GI50 was 77.6 µM (inactive).

Q: And the GI50 [3]?
A: The GI50 was 14.8 µM (inactive).

Q: What about the GI50 [4] of the same molecule?
A: The GI50 was 14.4 µM (inactive).

Q: What about the GI50 [5] of the same molecule?
A: The GI50 was 8.09 µM (inactive).

Q: What about the GI50 [6] of the same molecule?
A: Its GI50 is 38.9 µM (inactive).

Q: And the GI50 [7]?
A: Its GI50 is 13.7 µM (inactive).

Q: What about the GI50 [8] of the same molecule?
A: Its GI50 is 7.71 µM (inactive).

Q: What about the GI50 [9] of the same molecule?
A: Its GI50 is 23.8 µM (inactive).

Q: What about the GI50 [10] of the same molecule?
A: Its GI50 is 4.48 µM (inactive).

Q: And the GI50 [11]?
A: Its GI50 is 11.7 µM (inactive).

Q: And the GI50 [12]?
A: Its GI50 is > 100 µM (inactive).

Q: And the GI50 [13]?
A: Its GI50 is 29.8 µM (inactive).

Q: What about the GI50 [14] of the same molecule?
A: The GI50 was 13.9 µM (inactive).

Q: What about the GI50 [15] of the same molecule?
A: Its GI50 is 11.8 µM (inactive).

Q: And the GI50 [16]?
A: The GI50 was 7.52 µM (inactive).

Q: And the GI50 [17]?
A: The GI50 was 22.3 µM (inactive).

Q: What about the GI50 [18] of the same molecule?
A: The GI50 was 4.52 µM (inactive).

Q: And the GI50 [19]?
A: The GI50 was 28.2 µM (inactive).

Q: And the GI50 [20]?
A: Its GI50 is 25.4 µM (inactive).

Q: O=[N+]([O-])c1ccc2c(c1)C1=C(CO2)Cc2ccccc2O1 was tested. Which GI50 [1] did it give?
A: The GI50 was 17.8 µM (inactive).

Q: And the GI50 [3]?
A: Its GI50 is 24.5 µM (inactive).

Q: What about the GI50 [4] of the same molecule?
A: The GI50 was 21.3 µM (inactive).

Q: And the GI50 [5]?
A: The GI50 was 20.6 µM (inactive).

Q: What about the GI50 [6] of the same molecule?
A: Its GI50 is 36.9 µM (inactive).

Q: And the GI50 [7]?
A: The GI50 was 37.8 µM (inactive).

Q: And the GI50 [8]?
A: Its GI50 is 17.6 µM (inactive).

Q: And the GI50 [9]?
A: The GI50 was > 100 µM (inactive).

Q: What about the GI50 [10] of the same molecule?
A: Its GI50 is 23.6 µM (inactive).

Q: What about the GI50 [11] of the same molecule?
A: Its GI50 is 14.8 µM (inactive).

Q: And the GI50 [12]?
A: Its GI50 is 26.2 µM (inactive).

Q: And the GI50 [13]?
A: The GI50 was 23.9 µM (inactive).

Q: And the GI50 [14]?
A: Its GI50 is 19.1 µM (inactive).

Q: And the GI50 [15]?
A: The GI50 was 18.9 µM (inactive).

Q: What about the GI50 [16] of the same molecule?
A: Its GI50 is 16.3 µM (inactive).

Q: What about the GI50 [17] of the same molecule?
A: Its GI50 is 37.9 µM (inactive).

Q: What about the GI50 [18] of the same molecule?
A: Its GI50 is 19.4 µM (inactive).

Q: What about the GI50 [19] of the same molecule?
A: The GI50 was 23.9 µM (inactive).

Q: And the GI50 [20]?
A: Its GI50 is 21.3 µM (inactive).

Q: Which results are given for CNCCCNC(=S)Cn1cc(C)c(=O)[nH]c1=O?
A: GI50 [1]: > 37.9 µM (inactive); GI50 [2]: > 91.2 µM (inactive); GI50 [3]: > 69.5 µM (inactive); GI50 [4]: > 39.1 µM (inactive); GI50 [5]: > 53 µM (inactive); GI50 [6]: > 53.2 µM (inactive); GI50 [7]: > 27 µM (inactive); GI50 [8]: > 47.5 µM (inactive); GI50 [9]: > 54.2 µM (inactive); GI50 [10]: > 30.6 µM (inactive); GI50 [11]: > 34.2 µM (inactive); GI50 [12]: > 59 µM (inactive); GI50 [13]: 34.4 µM (inactive); GI50 [14]: > 45.5 µM (inactive); GI50 [15]: > 32.9 µM (inactive); GI50 [16]: > 33.8 µM (inactive); GI50 [17]: > 45.2 µM (inactive); GI50 [18]: > 47.4 µM (inactive); GI50 [19]: > 20.1 µM (inactive); GI50 [20]: > 56.4 µM (inactive)

Reference: ChEMBL document CHEMBL1201862, “PubChem BioAssay data set” (2004)
